In PMC3316155 (2012):

Columns and labels:
Type in all cases: biochemical
[1] = molecular target: T1, PARP-1 [poly(ADP-ribose) polymerase 1] (Homo sapiens, UniProt P09874); assay: […]NAD+ automodification assay, % inhibition at […]; conditions: read-out: % reduction at 1 mM
[2] = molecular target: T1, PARP-1 [poly(ADP-ribose) polymerase 1]; assay: […]NAD+ automodification assay with purified PARP-1
[3] = molecular target: T1, PARP-1 [poly(ADP-ribose) polymerase 1]; assay: […]NAD+ automodification assay, single concentration of […]
[4] = molecular target: T1, PARP-1 [poly(ADP-ribose) polymerase 1]; assay: Michaelis–Menten kinetics of ADP-ribose incorporation

T1 sequence (P09874 2-1014): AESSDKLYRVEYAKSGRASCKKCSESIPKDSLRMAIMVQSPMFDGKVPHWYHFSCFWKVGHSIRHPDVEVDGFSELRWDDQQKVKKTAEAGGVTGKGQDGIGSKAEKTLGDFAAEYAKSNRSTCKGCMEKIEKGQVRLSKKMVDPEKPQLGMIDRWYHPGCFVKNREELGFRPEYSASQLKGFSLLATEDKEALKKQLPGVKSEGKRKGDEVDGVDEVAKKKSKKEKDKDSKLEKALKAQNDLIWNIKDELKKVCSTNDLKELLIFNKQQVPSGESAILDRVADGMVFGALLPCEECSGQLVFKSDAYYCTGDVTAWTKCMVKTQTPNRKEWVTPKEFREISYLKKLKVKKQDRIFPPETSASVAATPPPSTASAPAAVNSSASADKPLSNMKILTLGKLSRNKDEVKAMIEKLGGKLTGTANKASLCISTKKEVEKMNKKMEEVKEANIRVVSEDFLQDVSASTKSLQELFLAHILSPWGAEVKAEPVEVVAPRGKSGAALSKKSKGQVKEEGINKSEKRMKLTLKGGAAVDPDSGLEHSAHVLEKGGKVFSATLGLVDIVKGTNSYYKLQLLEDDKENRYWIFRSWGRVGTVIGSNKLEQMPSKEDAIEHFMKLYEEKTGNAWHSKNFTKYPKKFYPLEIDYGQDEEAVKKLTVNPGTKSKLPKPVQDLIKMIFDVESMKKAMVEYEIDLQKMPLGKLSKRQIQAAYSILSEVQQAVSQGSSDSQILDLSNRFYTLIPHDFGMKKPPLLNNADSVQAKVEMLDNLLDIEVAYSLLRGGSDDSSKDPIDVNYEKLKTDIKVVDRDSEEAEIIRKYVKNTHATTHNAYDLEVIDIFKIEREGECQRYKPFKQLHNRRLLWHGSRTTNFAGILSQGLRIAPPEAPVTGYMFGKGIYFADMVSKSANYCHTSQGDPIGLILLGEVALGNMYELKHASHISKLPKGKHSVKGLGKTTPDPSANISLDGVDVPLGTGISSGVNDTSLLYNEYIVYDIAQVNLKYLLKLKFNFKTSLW

## Nc1ncnc2c1ncn2[C@@H]1O[C@H](COP(=O)(O)OP(=O)(O)OP(=O)(O)O)[C@@H](O)[C@H]1O [ATP]
[1]
  inhibition at 1000 µM: ~25%

## Nc1ncnc2c1ncn2[C@@H]1O[C@H](COP(=O)(O)O)[C@@H](OP(=O)(O)O)[C@H]1O [pAp]
[2]
  Ki: 500 to 1000 nM

## Nc1ncnc2c1ncn2[C@@H]1O[C@H](COP(=O)(O)OP(=O)(O)OC[C@H]2OC(O)[C@H](O)[C@@H]2O)[C@@H](O)[C@H]1O (stereo partly shown) [ADP-ribose]
[3]
  [32P]NAD+ automodification assay, single concentration of 50 μM: With the exception of ADP-ribose, other adenine derivatives only inhibited PARP-1 to a limited extent

## NC(=O)c1ccc[n+]([C@@H]2O[C@H](COP(=O)([O-])OP(=O)(O)OC[C@H]3O[C@@H](n4cnc5c(N)ncnc54)[C@H](O)[C@@H]3O)[C@@H](O)[C@H]2O)c1 [NAD^+]
[4]
  Km: 200 to 250 µM
